Laboratory results: BindingDB's records for doi:10.1016/j.ejmech.2008.07.020 (Jadavpur University, 2009)

target: Reverse transcriptase/RNaseH (Human immunodeficiency virus 1, UniProt Q72547); test: Inhibition of HIV1 reverse transcriptase

Compound	IC50 [µM]
CCCC1CN(CCC)Cc2cccc3[nH]c(=O)n1c23 (stereo not drawn)	182
C[C@H]1Cn2c(=O)[nH]c3ccc(N)c(c32)CN1CC1CC1	849
CCCCN1Cc2cccc3[nH]c(=O)n(c23)C[C@@H]1C	100
